Where two headings read alike, the source gives them in different places.

In this experiment the target is T1, human PAH with the R408W mutation (Homo sapiens, UniProt P00439, R408W).
T1 construct: expressed in transfected cells
T1 sequence (P00439 1-452 R408W): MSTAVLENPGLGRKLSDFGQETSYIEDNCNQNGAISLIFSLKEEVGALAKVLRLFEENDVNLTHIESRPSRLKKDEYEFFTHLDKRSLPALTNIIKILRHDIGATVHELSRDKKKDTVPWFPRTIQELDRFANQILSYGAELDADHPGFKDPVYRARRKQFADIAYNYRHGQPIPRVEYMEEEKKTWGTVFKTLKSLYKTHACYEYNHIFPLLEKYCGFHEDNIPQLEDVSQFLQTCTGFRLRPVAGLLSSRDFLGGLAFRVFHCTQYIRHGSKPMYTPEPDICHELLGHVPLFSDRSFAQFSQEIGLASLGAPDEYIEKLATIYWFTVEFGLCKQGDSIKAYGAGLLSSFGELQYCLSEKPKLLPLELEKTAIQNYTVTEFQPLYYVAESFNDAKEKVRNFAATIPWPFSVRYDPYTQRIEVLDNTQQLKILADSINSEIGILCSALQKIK
The experiment in a line: Cell Based Phenylalanine Flux Assay. As to conditions: A375 cells expressing human R408W PAH, 13C-Tyrosine by LC-MS, average where tested multiple times, read-out: AC50.

Turning to `O=C(c1ocnc1C(F)(F)F)N1CC2(CC2)c2[nH]cnc2[C@@H]1c1nc2ccccc2s1` [Example 1667, (R)-(4′-(benzo[d]thiazol-2-yl)spiro[cyclopropane-1,7′-imidazo[4,5-c]pyridin]-5′(1′H,4′H,6′H)-yl)(4-(trifluoromethyl)oxazol-5-yl)methanone], the concentration at half-maximal activity (AC50) (24 hrs compound incubation) is 1 to 5 µM. On the same count and under the same terms, next, `O=C(c1cnn2ccccc12)N1CCc2[nH]cnc2[C@H]1c1nc2cccc(F)c2[nH]1` [Example 990, (S)-(4-(7-fluoro-1H-benzo[d]imidazol-2-yl)-6,7-dihydro-1H-imidazo[4,5-c]pyridin-5(4H)-yl)(pyrazolo[1,5-a]pyridin-3-yl)methanone]: 0.5 to 1 µM. As to `O=C(CCCc1ccc(F)cc1)N1CCc2[nH]cnc2[C@H]1c1nc2ccccc2[nH]1` [(S)-1-(4-(1H-benzo[d]imidazol-2-yl)-1,4,6,7-tetrahydro-5H-imidazo[4,5-c]pyridin-5-yl)-4-(4-fluorophenyl)butan-1-one], the concentration at half-maximal activity (AC50) (24 hrs with compound) lay in the range of 1 to 5 µM. Turning to `CC(C)(C)OC(=O)N1CC(c2nnc(C(=O)N3CCc4[nH]cnc4[C@@H]3c3nc4ccccc4s3)o2)C1` [Example 1894, (R)-tert-butyl 3-(5-(4-(benzo[d]thiazol-2-yl)-4,5,6,7-tetrahydro-1H-imidazo[4,5-c]pyridine-5-carbonyl)-1,3,4-oxadiazol-2-yl)azetidine-1-carboxylate], the AC50 (24 hrs compound incubation) lay within 1 to 5 µM. Consider `CC(C)(O)c1ncc(C(=O)N2CCc3[nH]cnc3[C@H]2c2nc3ccccc3s2)s1` [Example 1435], for which, under “24 hrs compound incubation”, the AC50 is < 0.5 µM. Take `CN(C)CCc1nnc(C(=O)N2CCc3[nH]cnc3C2c2nc3ccccc3s2)o1` (stereo not drawn): where the note is “24 hrs with compound”, the AC50 lay in the range of 1 to 5 µM. Still for that read-out and setting: next, `Cn1nc(-c2ccccn2)cc1C(=O)N1CCc2[nH]cnc2C1c1nc2c(F)cccc2s1` (stereo not drawn): > 5 µM. As to `Cn1nc(C(F)(F)F)cc1C(=O)N1CCc2[nH]cnc2[C@H]1c1nc2c(F)cccc2s1` [Example 1787, (S)-(4-(4-fluorobenzo[d]thiazol-2-yl)-6,7-dihydro-1H-imidazo[4,5-c]pyridin-5(4H)-yl)(1-methyl-3-(trifluoromethyl)-1H-pyrazol-5-yl)methanone], the concentration at half-maximal activity (AC50) (24 hrs compound incubation) was in the range of 1 to 5 µM. For `O=C(CCc1ccc(F)cc1)N1CCc2[nH]cnc2C1c1nc2ccccc2[nH]1` (stereo not drawn), the AC50 (24 hrs with compound) is 1 to 5 µM.

As to `Cc1nn(C)c(Cl)c1C(=O)N1CCc2[nH]cnc2[C@@H]1c1nc2c(F)cccc2s1` [Example 1741, (R)-(5-chloro-1,3-dimethyl-1H-pyrazol-4-yl)(4-(4-fluorobenzo[d]thiazol-2-yl)-6,7-dihydro-1H-imidazo[4,5-c]pyridin-5(4H)-yl)methanone], the half-maximal activity concentration (AC50) (24 hrs compound incubation) lay in the range of 1 to 5 µM.

As for `O=C(c1cnn(-c2ccccn2)c1Cl)N1CCc2[nH]cnc2[C@H]1c1nc2c(F)cccc2s1` [Example 1765], where the note is “24 hrs compound incubation”, the AC50 lay within 0.5 to 1 µM. `O=C(c1nnc(-c2ccc(F)cc2)o1)N1CCc2[nH]cnc2[C@@H]1c1nc2ccccc2s1` [Example 1370, (R)-(4-(benzo[d]thiazol-2-yl)-6,7-dihydro-1H-imidazo[4,5-c]pyridin-5(4H)-yl)(5-(4-fluorophenyl)-1,3,4-oxadiazol-2-yl)methanone]: the AC50 (24 hrs compound incubation) is 1 to 5 µM.

For `O=C(c1nc(Cl)cs1)N1CCc2[nH]cnc2[C@@H]1c1nc2cc(F)ccc2s1` [Example 1298, (R)-(4-chlorothiazol-2-yl)(4-(5-fluorobenzo[d]thiazol-2-yl)-6,7-dihydro-1H-imidazo[4,5-c]pyridin-5(4H)-yl)methanone], the concentration at half-maximal activity (AC50) (24 hrs compound incubation) lay in the range of 1 to 5 µM. In the case of `O=C(c1nc2ccccc2[nH]1)N1CCc2[nH]cnc2[C@@H]1c1nc2ccccc2s1` [Example 1132, (R)-(1H-benzo[d]imidazol-2-yl)(4-(benzo[d]thiazol-2-yl)-6,7-dihydro-1H-imidazo[4,5-c]pyridin-5(4H)-yl)methanone], where the note is “24 hrs compound incubation”, the AC50 is 1 to 5 µM. Consider `O=C(c1cnn2cc(N3CCCC3)ccc12)N1CCc2[nH]cnc2C1c1nc2ccccc2s1` (stereo not drawn), for which, where the note is “24 hrs with compound”, the AC50 is > 5 µM. On to `O=C(c1oc(NC2CC2)nc1C(F)(F)F)N1CCCc2[nH]cnc2[C@@H]1c1nc2ccccc2s1` [Example 2128, (R)-(4-(benzo[d]thiazol-2-yl)-7,8-dihydroimidazo[4,5-c]azepin-5(1H,4H,6H)-yl)(2-(cyclopropylamino)-4-(trifluoromethyl)oxazol-5-yl)methanone], for which the AC50 (24 hrs compound incubation) lay in the range of 1 to 5 µM. `O=C(c1cnn2cc(-c3ccccc3)ccc12)N1CCc2[nH]cnc2[C@@H]1c1nc2ccccc2s1` [Example 1210, (R)-(4-(benzo[d]thiazol-2-yl)-6,7-dihydro-1H-imidazo[4,5-c]pyridin-5(4H)-yl)(6-phenylpyrazolo[1,5-a]pyridin-3-yl)methanone]: the AC50 (24 hrs compound incubation) is > 5 µM. Regarding `O=C(c1ncc(Cl)s1)N1CCc2[nH]cnc2[C@@H]1c1nc2ccccc2[nH]1` [Example 920, (R)-(4-(1H-benzo[d]imidazol-2-yl)-6,7-dihydro-1H-imidazo[4,5-c]pyridin-5(4H)-yl)(5-chlorothiazol-2-yl)methanone], for the setting “24 hrs compound incubation”, the AC50 was > 5 µM. Still for that read-out and setting: in the case of `Cc1cccc2sc([C@@H]3c4nc[nH]c4CCN3C(=O)c3ocnc3C(F)F)nc12` [Example 2011] it was < 0.5 µM; in that of `Cn1nc(C(F)F)nc1C(=O)N1CCc2[nH]cnc2[C@@H]1c1nc2ccccc2s1` [Example 2172, (R)-(4-(benzo[d]thiazol-2-yl)-6,7-dihydro-1H-imidazo[4,5-c]pyridin-5(4H)-yl)(3-(difluoromethyl)-1-methyl-1H-1,2,4-triazol-5-yl)methanone], > 5 µM. With `Cn1ncnc1C(=O)N1CCc2[nH]cnc2[C@@H]1c1nc2c(F)cccc2s1` (single isomer, unassigned), the AC50 (24 hrs with compound) was > 5 µM. Still for that read-out and setting: next, `CC1CN(C(=O)c2nnc(C(C)(C)O)o2)C(c2nc3ccccc3s2)c2nc[nH]c21` (stereo not drawn): 1 to 5 µM. Regarding `Cc1nnc(CCC(=O)N2CCc3[nH]cnc3C2c2nc3ccccc3s2)o1` (stereo not drawn), the AC50 (24 hrs with compound) was > 5 µM. Turning to `O=C(c1oc(OCCC(F)(F)F)nc1C(F)F)N1CCc2[nH]cnc2[C@H]1c1nc2ccccc2s1` [Example 1772], the concentration at half-maximal activity (AC50) (24 hrs compound incubation) is < 0.5 µM.

For the molecule `C[C@H]1CN(C(=O)c2nnc(-c3ccccn3)o2)[C@H](c2nc3ccccc3s2)c2nc[nH]c21` [Example 1589, ((4S,7S)-4-(benzo[d]thiazol-2-yl)-7-methyl-6,7-dihydro-1H-imidazo[4,5-c]pyridin-5(4H)-yl)(5-(pyridin-2-yl)-1,3,4-oxadiazol-2-yl)methanone], for the setting “24 hrs compound incubation”, the AC50 is 0.5 to 1 µM.

For the molecule `Cc1nnc(CCC(=O)N2CCc3[nH]cnc3[C@@H]2c2nc3ccccc3s2)s1` [Example 1020, (R)-1-(4-(benzo[d]thiazol-2-yl)-6,7-dihydro-1H-imidazo[4,5-c]pyridin-5(4H)-yl)-3-(5-methyl-1,3,4-thiadiazol-2-yl)propan-1-one], the AC50 (24 hrs compound incubation) is > 5 µM. On the same count and under the same terms, in the case of `O=C(c1cnc(-c2ncccc2F)s1)N1CCc2[nH]cnc2[C@H]1c1nc2ccccc2s1` [Example 1373] it was < 0.5 µM. For the molecule `CN(C)Cc1ccc2c(C(=O)N3CC4(CC4)c4[nH]cnc4C3c3nc4ccccc4s3)cnn2c1` (stereo not drawn), under “24 hrs with compound”, the AC50 lay in the range of 1 to 5 µM. Turning to `Cc1c(C(=O)N2CCc3[nH]cnc3[C@H]2c2nc3c(F)cccc3s2)cnn1CC(F)(F)F` [Example 1919, (S)-(4-(4-fluorobenzo[d]thiazol-2-yl)-6,7-dihydro-1H-imidazo[4,5-c]pyridin-5(4H)-yl)(5-methyl-1-(2,2,2-trifluoroethyl)-1H-pyrazol-4-yl)methanone], the AC50 (24 hrs compound incubation) was 0.5 to 1 µM. Consider `Cc1nc(-c2ccccn2)sc1C(=O)N1CCc2[nH]cnc2C1c1nc2ccccc2s1` (stereo not drawn), for which the AC50 (24 hrs with compound) is > 5 µM.

As for `CC(C)(O)c1nc(Br)c(C(=O)N2CCc3[nH]cnc3[C@@H]2c2nc3c(F)cccc3s2)o1` [Example 1898, (R)-(4-bromo-2-(2-hydroxypropan-2-yl)oxazol-5-yl)(4-(4-fluorobenzo[d]thiazol-2-yl)-6,7-dihydro-1H-imidazo[4,5-c]pyridin-5(4H)-yl)methanone], the AC50 (24 hrs compound incubation) lay in the range of 1 to 5 µM. The same measure, in the same setting: in the case of `O=C(c1cnn(-c2ccc(F)cc2)c1)N1CCc2[nH]cnc2[C@@H]1c1nc2ccccc2s1` [Example 1412, (R)-(4-(benzo[d]thiazol-2-yl)-6,7-dihydro-1H-imidazo[4,5-c]pyridin-5(4H)-yl)(1-(4-fluorophenyl)-1H-pyrazol-4-yl)methanone] it was 1 to 5 µM.

As to `O=C(c1cnc(C(F)F)s1)N1CCc2[nH]cnc2[C@@H]1c1nc2ccccc2s1` [Example 1522, (R)-(4-(benzo[d]thiazol-2-yl)-6,7-dihydro-1H-imidazo[4,5-c]pyridin-5(4H)-yl)(2-(difluoromethyl)thiazol-5-yl)methanone], the concentration at half-maximal activity (AC50) (24 hrs compound incubation) lay in the range of 1 to 5 µM.

Regarding `Cc1nnc(CCC(=O)N2CCc3[nH]cnc3C2c2nc3cccc(F)c3s2)s1` (stereo not drawn), where the note is “24 hrs with compound”, the half-maximal activity concentration (AC50) lay in the range of 1 to 5 µM. In the case of `O=C(c1cnn2cc(CN3CCOCC3)ccc12)N1CCc2[nH]cnc2[C@H]1c1nc2ccccc2s1` [Example 2155], the AC50 (24 hrs compound incubation) was 1 to 5 µM. Take `O=C(Cc1nccs1)N1CCc2[nH]cnc2C1c1nc2c(F)cccc2s1` (stereo not drawn): the AC50 (24 hrs with compound) was in the range of 1 to 5 µM.

In the case of `CC(C)n1ncnc1C(=O)N1CCc2[nH]cnc2[C@@H]1c1nc2c(F)cccc2s1` [Example 2040, (R)-(4-(4-fluorobenzo[d]thiazol-2-yl)-6,7-dihydro-1H-imidazo[4,5-c]pyridin-5(4H)-yl)(1-isopropyl-1H-1,2,4-triazol-5-yl)methanone], the AC50 (24 hrs compound incubation) fell in the range of 1 to 5 µM.

On to `O=C(c1cnn(CC(F)(F)F)c1)N1CCc2[nH]cnc2C1c1nc2ccccc2s1` (stereo not drawn), for which, under “24 hrs with compound”, the AC50 fell in the range of 1 to 5 µM. For the molecule `O=C(c1n[nH]c2ccccc12)N1CCc2[nH]cnc2C1c1nc2c(F)cccc2s1` (stereo not drawn), under “24 hrs with compound”, the AC50 is 1 to 5 µM.

As a reminder, the AC50 is the concentration at which the activity in the assay is half-maximal.

These data come from patent publication US20250171438A1 (Agios Pharmaceuticals, Inc., priority 2022, published 2025).
